For one test, the target named is T1, h-TGR5 (Homo sapiens, UniProt Q8TDU6).
T1 sequence (Q8TDU6 1-330): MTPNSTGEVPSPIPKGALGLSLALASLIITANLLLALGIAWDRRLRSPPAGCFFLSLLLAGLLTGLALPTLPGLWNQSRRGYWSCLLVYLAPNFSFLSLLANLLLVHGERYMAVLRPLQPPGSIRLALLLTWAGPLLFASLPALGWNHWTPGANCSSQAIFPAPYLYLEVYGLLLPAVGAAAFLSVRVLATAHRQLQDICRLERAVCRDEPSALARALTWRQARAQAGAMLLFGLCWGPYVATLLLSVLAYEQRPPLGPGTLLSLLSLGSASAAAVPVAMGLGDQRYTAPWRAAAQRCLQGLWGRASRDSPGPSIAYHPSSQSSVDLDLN
In words: TGR5 cAMP Assay using Cisbio cAMP Dynamic 2 htrf assay kit. Type of test: cell-based. Conditions: hTGR5CRE-luc HEK 293 cells.

The target in another test is T2, human TGR5 (h-TGR5) (Homo sapiens, UniProt Q8TDU6).
T2 sequence (Q8TDU6 1-330): T1 sequence (Q8TDU6 1-330)
In words: TGR5/CRE-Luciferase Assay. Type of test: cell-based. As to conditions: HEK 293 hTGR5/CRE-Luc cells, 6 hours incubation, read-out: CRE-Luc Agonist (EC50). Summed up:
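HEK 293 CRE-Luciferase cells stably expressing the receptor, plated in DMEM 18-20 h before assay, then exposed to serially diluted compounds (DMEM with 5% DMSO) for 6 h. Luciferase read-out after lysis; EC50 from dose-response.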

Some results are limits rather than exact numbers.

Turning to `COc1ccc(C(C)(C)c2cnc(SCc3c(F)cc(S(=O)(=O)N(C)[C@@H](CCC[N+](C)(C)C)C(=O)O)cc3F)n2-c2ccc(F)cc2)cc1Cl` [Compound 14g, (S)-4-carboxy-4-(4-((5-(2-(3-chloro-4-methoxyphenyl)propan-2-yl)-1-(4-fluorophenyl)-1H-imidazol-2-ylthio)methyl)-3,5-difluoro-N-methylphenylsulfonamido)-N,N,N-trimethylbutan-1-aminium chloride], the half-maximal effective concentration (EC50) on h-TGR5 and on human TGR5 (h-TGR5) was less than 100 nM throughout.
In the case of `CC[C@@H](C(=O)O)N(CCC[N+](C)(C)C)S(=O)(=O)c1cc(F)c(CSc2ncc(C(C)(C)c3ccc(Cl)c(OC)c3)n2-c2ccc(F)cc2)c(Cl)c1` [Compound 14w, 3-([(1S)-1-carboxypropyl]{[3-chloro-4-({[5-{1-[4-chloro-3-(methyloxy)phenyl]-1-methylethyl}-1-(4-fluorophenyl)-1H-imidazol-2-yl]thio}methyl)-5-fluorophenyl]sulfonyl}amino)-N,N,N-trimethylpropan-1-aminium], the 50% effective concentration (EC50) on h-TGR5 and at human TGR5 (h-TGR5) was less than 100 nM in each case.
`COc1cc(C(C)(C)c2cnc(SCc3c(F)cc(S(=O)(=O)N(CCCC[N+](C)(C)C)[C@H](C)C(=O)O)cc3Cl)n2-c2ccc(F)cc2)ccc1Cl` [Compound 14aa, 4-([(1R)-1-carboxyethyl]{[3-chloro-4-({[5-{1-[4-chloro-3-(methyloxy)phenyl]-1-methylethyl}-1-(4-fluorophenyl)-1H-imidazol-2-yl]thio}methyl)-5-fluorophenyl]sulfonyl}amino)-N,N,N-trimethylbutan-1-aminium]: the EC50 at h-TGR5 and on human TGR5 (h-TGR5) was less than 100 nM each time.
In the case of `COc1cc(-n2c(C(C)(C)c3ccc(Cl)c(Cl)c3)cnc2SCc2c(F)cc(C(=O)NCC[N+]34CCN(CC3)CC4)cc2Cl)ccc1F` [Example 2b, 1-{2-[({3-chloro-4-[({5-[1-(3,4-dichlorophenyl)-1-methylethyl]-1-[4-fluoro-3-(methyloxy)phenyl]-1H-imidazol-2-yl}thio)methyl]-5-fluorophenyl}carbonyl)amino]ethyl}-4-aza-1-azoniabicyclo[2.2.2]octane], the EC50 at h-TGR5 and at human TGR5 (h-TGR5) was less than 100 nM each time.
As to `COc1cc(-n2c(C(C)(C)c3ccc(S(N)(=O)=O)c(Cl)c3)cnc2SCc2c(F)cc(CCC[N+](C)(C)C)cc2F)ccc1F` [Compound 19f, 3-(4-((5-(2-(3-chloro-4-sulfamoylphenyl)propan-2-yl)-1-(4-fluoro-3-methoxyphenyl)-1H-imidazol-2-ylthio)methyl)-3,5-difluorophenyl)-N,N,N-trimethylpropan-1-aminium 2,2,2-trifluoroacetate], the concentration giving a half-maximal response (EC50) at h-TGR5 and on human TGR5 (h-TGR5) was less than 100 nM in each case.
Consider `CC[N+](CC)(CC)CCCNS(=O)(=O)c1cc(F)c(CSc2ncc(C(C)(C)c3ccc(Cl)c(OC)c3)n2-c2ccc(F)cc2)c(F)c1` [Example 6m, 3-({[4-({[5-{1-[4-chloro-3-(methyloxy)phenyl]-1-methylethyl}-1-(4-fluorophenyl)-1H-imidazol-2-yl]thio}methyl)-3,5-difluorophenyl]sulfonyl}amino)-N,N,N-triethylpropan-1-aminium], for which the EC50 on h-TGR5 and at human TGR5 (h-TGR5) was less than 100 nM in each case.
Take `COc1cc(C(C)(C)c2cnc(SCc3ccc(Cl)c(S(=O)(=O)NCCC[N+](C)(C)C)c3)n2-c2ccc(F)cc2)ccc1Cl` [Example 6l, 3-({[2-chloro-5-({[5-{1-[4-chloro-3-(methyloxy)phenyl]-1-methylethyl}-1-(4-fluorophenyl)-1H-imidazol-2-yl]thio}methyl)phenyl]sulfonyl}amino)-N,N,N-trimethylpropan-1-aminium]: the EC50 on h-TGR5 and on human TGR5 (h-TGR5) was less than 100 nM in each case.
On to `COc1cc(C(C)(C)c2cnc(SCc3c(F)cc(S(=O)(=O)N[C@H]4CCC[N+](C)(C)C4)cc3Cl)n2-c2ccc(F)cc2)ccc1Cl` [Compound 11a, (3S)-3-({[3-chloro-4-({[5-{1-[4-chloro-3-(methyloxy)phenyl]-1-methylethyl}-1-(4-fluorophenyl)-1H-imidazol-2-yl]thio}methyl)-5-fluorophenyl]sulfonyl}amino)-1,1-dimethylpiperidinium], for which the EC50 at h-TGR5 and at human TGR5 (h-TGR5) was less than 100 nM in each case.
On to `COC(=O)[C@@H](C)N(CCC[N+](C)(C)C)S(=O)(=O)c1cc(F)c(CSc2ncc(C(C)(C)c3ccc(Cl)c(OC)c3)n2-c2ccc(F)cc2)c(F)c1` [Compound 14, (R)-3-(4-((5-(2-(4-chloro-3-methoxyphenyl)propan-2-yl)-1-(4-fluorophenyl)-1H-imidazol-2-ylthio)methyl)-3,5-difluoro-N-(1-methoxy-1-oxopropan-2-yl)phenylsulfonamido)-N,N,N-trimethylpropan-1-aminium 2,2,2-trifluoroacetate], for which the EC50 at h-TGR5 and at human TGR5 (h-TGR5) was less than 100 nM throughout.
As to `COc1cc(C(C)(C)c2cnc(SCc3c(F)cc(S(=O)(=O)N(CCC[N+](C)(C)C)C4(C(=O)O)CC4)cc3Cl)n2-c2ccc(F)cc2)ccc1Cl` [Compound 14z, 3-[(1-carboxycyclopropyl){[3-chloro-4-({[5-{1-[4-chloro-3-(methyloxy)phenyl]-1-methylethyl}-1-(4-fluorophenyl)-1H-imidazol-2-yl]thio}methyl)-5-fluorophenyl]sulfonyl}amino]-N,N,N-trimethylpropan-1-aminium], the EC50 at h-TGR5 and at human TGR5 (h-TGR5) was less than 100 nM each time.
Turning to `COc1cc(C(C)(C)c2cnc(SCc3c(F)cc(S(=O)(=O)N4CCC[C@H](C[N+](C)(C)C)C4)cc3Cl)n2-c2ccc(F)cc2)ccc1F` [Compound 11w, [(3R)-1-{[3-chloro-5-fluoro-4-({[5-{1-[4-fluoro-3-(methyloxy)phenyl]-1-methylethyl}-1-(4-fluorophenyl)-1H-imidazol-2-yl]thio}methyl)phenyl]sulfonyl}piperidin-3-yl]-N,N,N-trimethylmethanaminium], the concentration for a half-maximal effect (EC50) at h-TGR5 and at human TGR5 (h-TGR5) was less than 100 nM in each case.
As for `CC[N+](CC)(CC)CCCNS(=O)(=O)c1cc(F)c(CSc2ncc(C(C)(C)c3ccc(F)c(OC)c3)n2-c2ccc(F)cc2)c(Cl)c1` [Example 6o, 3-({[3-chloro-5-fluoro-4-({[5-{1-[4-fluoro-3-(methyloxy)phenyl]-1-methylethyl}-1-(4-fluorophenyl)-1H-imidazol-2-yl]thio}methyl)phenyl]sulfonyl}amino)-N,N,N-triethylpropan-1-aminium], the EC50 at h-TGR5 and on human TGR5 (h-TGR5) was less than 100 nM in each case.
With `COc1cc(C(C)(C)c2cnc(SCc3c(F)cc(C(=O)N[C@@H]4CC[N+](C)(C)C4)cc3Cl)n2-c2ccc(F)cc2)ccc1Cl` [Example 2h, (3R)-3-({[3-chloro-4-({[5-{1-[4-chloro-3-(methyloxy)phenyl]-1-methylethyl}-1-(4-fluorophenyl)-1H-imidazol-2-yl]thio}methyl)-5-fluorophenyl]carbonyl}amino)-1,1-dimethylpyrrolidinium], the EC50 on h-TGR5 and on human TGR5 (h-TGR5) was less than 100 nM in each case.
For the compound `COc1cc(C(C)(C)c2cnc(SCc3c(F)cc(S(=O)(=O)N4CC[C@H]([N+](C)(C)C)C4)cc3Cl)n2-c2ccc(F)cc2)ccc1Cl` [Compound 11l, (3S)-1-{[3-chloro-4-({[5-{1-[4-chloro-3-(methyloxy)phenyl]-1-methylethyl}-1-(4-fluorophenyl)-1H-imidazol-2-yl]thio}methyl)-5-fluorophenyl]sulfonyl}-N,N,N-trimethylpyrrolidin-3-aminium], the concentration giving a half-maximal response (EC50) on h-TGR5 and at human TGR5 (h-TGR5) was less than 100 nM in each case.
As for `COc1cc(C(C)(C)c2cnc(SCc3c(F)cc(S(=O)(=O)N4CCC[C@H]([N+](C)(C)C)C4)cc3Cl)n2-c2ccc(F)cc2)ccc1Cl` [Compound 11h, (3S)-1-{[3-chloro-4-({[5-{1-[4-chloro-3-(methyloxy)phenyl]-1-methylethyl}-1-(4-fluorophenyl)-1H-imidazol-2-yl]thio}methyl)-5-fluorophenyl]sulfonyl}-N,N,N-trimethylpiperidin-3-aminium], the concentration giving a half-maximal response (EC50) at h-TGR5 and on human TGR5 (h-TGR5) was less than 100 nM throughout.
`COc1cc(C(C)(C)c2cnc(SCc3c(F)cc(NC(=O)NCC[N+](C)(C)C)cc3Cl)n2-c2ccc(F)cc2)ccc1Cl` [Example 5]: the EC50 at h-TGR5 and at human TGR5 (h-TGR5) was less than 100 nM in each case.
As to `COc1cc(C(C)(C)c2cnc(SCc3c(F)cc(C(=O)N[C@H]4CC[N+](C)(C)C4)cc3Cl)n2-c2ccc(F)cc2)ccc1F` [Example 2q, (3S)-3-({[3-chloro-5-fluoro-4-({[5-{1-[4-fluoro-3-(methyloxy)phenyl]-1-methylethyl}-1-(4-fluorophenyl)-1H-imidazol-2-yl]thio}methyl)phenyl]carbonyl}amino)-1,1-dimethylpyrrolidinium], the EC50 on h-TGR5 and on human TGR5 (h-TGR5) was less than 100 nM throughout.
As to `COc1cc(C(C)(C)c2nnc(SCc3c(F)cc(S(=O)(=O)NCCC[N+](C)(C)C)cc3F)n2-c2ccc(F)cc2)ccc1Cl` [Example 6d, 3-({[4-({[5-{1-[4-chloro-3-(methyloxy)phenyl]-1-methylethyl}-4-(4-fluorophenyl)-4H-1,2,4-triazol-3-yl]thio}methyl)-3,5-difluorophenyl]sulfonyl}amino)-N,N,N-trimethylpropan-1-aminium], the concentration giving a half-maximal response (EC50) on h-TGR5 and on human TGR5 (h-TGR5) was less than 100 nM in each case.

One may read the EC50 as the concentration at which the effect is half-maximal.

Values taken from US8846739B2, “TGR5 agonists” (Exelixis Patent Company LLC, priority 2009, dated 2014).
